Blank lines part the entries; values can stand above or below the compound they belong to. Starred links: 1 amine or outer side, 2 acyl side, 3 side chain; linkers in the order of their positions; H or OH if unused. Non-standard residues stand in square brackets, D forms with d. Residues, ends and D or L forms follow the SMILES beside them. Groups on a side chain read outwards from the residue. *: point of attachment. d(γGlu) = O=C(O)[C@@H](CCC(=O)[*:2])N[*:1]; C18 diacid = O=C(O)CCCCCCCCCCCCCCCCC(=O)*; AEEA = NCCOCCOCC(=O)O; Aib = CC(C)(N)C(=O)O
What was measured:
[1] = molecular target: T1, hGIPR (Homo sapiens, UniProt P48546); assay: HTRF cAMP cell agonistic activity assay, HEK293 stably expressing GIPR (Example 7); format: cell-based
T1 construct: expressed in transfected cells; host or cells: HEK293, stably transduced
T1 sequence (P48546 22-466): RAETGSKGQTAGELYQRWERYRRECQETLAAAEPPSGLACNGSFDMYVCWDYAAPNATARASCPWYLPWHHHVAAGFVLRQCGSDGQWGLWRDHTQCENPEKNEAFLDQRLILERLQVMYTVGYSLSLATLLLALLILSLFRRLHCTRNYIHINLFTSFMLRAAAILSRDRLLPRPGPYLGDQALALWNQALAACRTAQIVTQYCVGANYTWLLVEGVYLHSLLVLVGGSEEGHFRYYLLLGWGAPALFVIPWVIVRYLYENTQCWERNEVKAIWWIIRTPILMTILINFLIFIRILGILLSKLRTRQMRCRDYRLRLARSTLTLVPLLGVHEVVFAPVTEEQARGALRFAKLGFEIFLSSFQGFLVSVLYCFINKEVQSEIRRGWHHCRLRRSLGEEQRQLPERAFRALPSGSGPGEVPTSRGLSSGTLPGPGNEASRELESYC
Description: The agonistic activity of the compounds on the receptor was determined using the HTRF kit (purchased from Perkin Elmer). All reagents in the kit were allowed to equilibrate to room temperature before use. A 1× Stimulation Buffer was formulated according to the instruction in the kit for use. […] GIPR cells were digested with trypsin, centrifuged to remove the culture medium. The cells were resuspended in the 1× Stimulation Buffer. After being counted, 9 μL cell dilutions were inoculated into a 384-well plate at 1000 cells/well. 1 μL the 10× compound diluted in step 2 was taken and added to the corresponding test well, wherein 1 μL the 10× initial concentration positive compound was added to the PC hole (Min value), and 1 μL the 10×DMSO buffer (1%) was added to the VC hole (Max value). The plate was centrifuged and incubated at 37 °C for 30 minutes. Eu-cAMP was diluted with Detection buffer to a working concentration, and the diluent was added into the corresponding test well at 5 μL/well. ULight-anti-Camp was diluted with Detection buffer to a working concentration, and the diluent was added into the corresponding test well at 5 μL/well. After being centrifuged, the plate was incubated at room temperature for 1 hour. […] The nonlinear regression method of GraphPad Prism software was used for curve fitting and EC50 calculation.

[2] = molecular target: hGLP-1R (Homo sapiens, UniProt P43220); assay: Cell agonistic activity at GLP-1 receptor (Example 7); format: cell-based; conditions: read-out: hGLP-1R EC50
[3] = set-up: species or system DIO mice; conditions: mouse, in vivo
Excerpt: […] high-fat diet-induced obese (DIO) mice were weighed. When the average weight of the mice is about 40-45 g, they are randomly assigned to Groups G2-G11 based on the body weight of the mice, with 8 mice in each group. Eight C57BL/6 mice fed with normal diet were assigned to Group G1. Each mouse in all groups was housed in a separate cage for 2-3 days to adapt to environment before grouping. During this period, the mice were adaptively caught and administrated with blank solvent daily. The day of grouping was Day 0. The Vehicle group was administrated with blank solvent (propylene glycol: 14.0 mg/mL and disodium hydrogen phosphate: 1.132 mg/mL) at pH 7.4; s.c. means subcutaneous injection; the frequency of administration QD means once a day. Such expressions may be applied to the following Examples.
Based on the assay in Example 11, the cumulative water intake of the mice was also statistically calculated and compared with the water intake of the mice in the Tirzepatide treatment group.

[4] = molecular target: human GLP-1 receptor (human, UniProt P43220 24-463); assay: cell-based or functional assay
[5] = molecular target: human GIP receptor (glucose-dependent insulinotropic peptide receptor, GIPR) (human) (UniProt P48546); assay: cell-based or functional assay

Chain of hGLP-1R (P43220 24-463): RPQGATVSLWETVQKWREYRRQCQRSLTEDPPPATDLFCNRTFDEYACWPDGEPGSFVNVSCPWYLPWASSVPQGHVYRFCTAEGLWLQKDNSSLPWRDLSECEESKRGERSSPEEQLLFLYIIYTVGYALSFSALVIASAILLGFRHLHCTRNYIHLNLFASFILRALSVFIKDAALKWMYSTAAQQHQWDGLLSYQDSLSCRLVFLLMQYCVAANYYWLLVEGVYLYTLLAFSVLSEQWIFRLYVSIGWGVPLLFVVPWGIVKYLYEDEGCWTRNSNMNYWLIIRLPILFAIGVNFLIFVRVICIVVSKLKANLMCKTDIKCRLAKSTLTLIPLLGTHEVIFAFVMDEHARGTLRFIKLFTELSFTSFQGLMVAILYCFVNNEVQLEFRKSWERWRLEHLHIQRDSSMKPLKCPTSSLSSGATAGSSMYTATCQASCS
Chain of human GLP-1 receptor (P43220 24-463): as above

Compound: CC[C@H](C)[C@H](NC(=O)[C@H](CO)NC(=O)[C@H](Cc1ccc(O)cc1)NC(=O)[C@H](CC(=O)O)NC(=O)[C@H](CO)NC(=O)[C@@H](NC(=O)[C@H](Cc1ccccc1)NC(=O)[C@@H](NC(=O)CNC(=O)[C@H](CCC(=O)O)NC(=O)C(C)(C)NC(=O)[C@@H](N)Cc1ccc(O)cc1)[C@@H](C)O)[C@@H](C)CC)C(=O)N[C@@H](C)C(=O)N[C@@H](CC(C)C)C(=O)N[C@@H](CC(=O)O)C(=O)N[C@@H](CCCNC(=N)N)C(=O)N[C@H](C(=O)N[C@@H](Cc1c[nH]cn1)C(=O)N[C@@H](CCC(N)=O)C(=O)N[C@@H](CCC(N)=O)C(=O)N[C@@H](CC(=O)O)C(=O)N[C@@H](Cc1ccccc1)C(=O)N[C@H](C(=O)N[C@@H](CC(N)=O)C(=O)N[C@@H](Cc1c[nH]c2ccccc12)C(=O)N[C@@H](CC(C)C)C(=O)N[C@@H](CC(C)C)C(=O)N[C@@H](C)C(=O)N[C@@H](CCC(N)=O)C(=O)N[C@@H](CCCCNC(=O)COCCOCCNC(=O)COCCOCCNC(=O)CC[C@@H](NC(=O)CCCCCCCCCCCCCCCCC(=O)O)C(=O)O)C(=O)NCC(=O)O)C(C)C)[C@@H](C)CC [Peptide 14, N-{ε-30}-18-{[(23R)-23-carboxyl-2,11,20-trioxo-10,19-diaza-4,7,13,16-tetraoxatricosyl-23-yl]amino}-18-oxooctadecanoic acid acetyl-[Aib2, L14, R16]-hGIP(1-31)] (H-Y[Aib]EGTFISDYSIALDRIHQQDFVNWLLAQK([AEEA-AEEA-d(γGlu)-C18 diacid])G-OH)
EC50 [1]: 3.5 pM
EC50 [2]: > 100 pM

Compound: CC[C@H](C)[C@H](NC(=O)[C@H](CC(C)C)NC(=O)[C@H](Cc1c[nH]c2ccccc12)NC(=O)[C@H](CCC(N)=O)NC(=O)[C@@H](NC(=O)[C@H](Cc1ccccc1)NC(=O)[C@H](C)NC(=O)[C@H](CCCCNC(=O)COCCOCCNC(=O)COCCOCCNC(=O)CC[C@H](NC(=O)CCCCCCCCCCCCCCCCCCC(=O)O)C(=O)O)NC(=O)[C@H](CCC(N)=O)NC(=O)[C@H](C)NC(=O)[C@@H](NC(=O)[C@H](CCCCN)NC(=O)[C@H](CC(=O)O)NC(=O)[C@H](CC(C)C)NC(=O)C(C)(C)NC(=O)[C@@H](NC(=O)[C@H](CO)NC(=O)[C@H](Cc1ccc(O)cc1)NC(=O)[C@H](CC(=O)O)NC(=O)[C@H](CO)NC(=O)[C@@H](NC(=O)[C@H](Cc1ccccc1)NC(=O)[C@@H](NC(=O)CNC(=O)[C@H](CCC(=O)O)NC(=O)C(C)(C)NC(=O)[C@@H](N)Cc1ccc(O)cc1)[C@@H](C)O)[C@@H](C)O)[C@@H](C)CC)[C@@H](C)CC)C(C)C)C(=O)N[C@@H](C)C(=O)NCC(=O)NCC(=O)N1CCC[C@H]1C(=O)N[C@@H](CO)C(=O)N[C@@H](CO)C(=O)NCC(=O)N[C@@H](C)C(=O)N1CCC[C@H]1C(=O)N1CCC[C@H]1C(=O)N1CCC[C@H]1C(=O)N[C@@H](CO)C(N)=O [Tirzepatide]
water intake / adverse responses [3]: significantly inhibited

EC50(pM), cell agonistic activity [4]: 7.01 pM
EC50(pM), cell agonistic activity (cAMP, HTRF) [5]: > 100 pM
Compound: hGLP-1 (7-37) (from UniProt P01275 21-180) (ligand)

From patent US20240239863A1, “GIP RECEPTOR AGONIST AND USE THEREOF” (HANGZHOU ZHONGMEIHUADONG PHARMACEUTICAL CO., LTD., priority 2022, published 2024)
